Laboratory results as given in US8268961B2, “Antibacterial peptides and analogues thereof” (Universita Degli Studi di Siena, priority 2004, dated 2012).
Like-named read-outs stand apart in the source and are kept apart here. Positions of bridges follow the written chain, without caps; N, C: chain ends. Residues, ends and D or L forms follow the SMILES beside them. Chains are numbered I, II in the order given. No end group written: not given here.

How the values were obtained:
[1] = tested on: Staphylococcus aureus ATCC 25923; assay type: cell-based; details: Staphylococcus aureus ATCC 25923, reference strain
Description: (§1) MIC is defined as the lowest concentration, in an antibiotic dilution range, that inhibits visible bacterial growth. The importance of MIC sensitivity test is based on the principle that in vitro sensitivity provides a predictive indication of the in vivo efficacy of the antibiotic therapy. Values are expressed as molar concentration and compared to MIC values obtained with commercially available antibiotics such as amikacin, ceftriaxone and levofloxacin (Table 3).
(§2) Reference strains (Escherichia coli ATCC 25922, Pseudomonas aeruginosa ATCC 27853, Staphylococus aureus ATCC 25923 and Chryseobacterium meningosepticum CCUG 4310) and several recent clinical isolates (including multidrug-resistant ones) of various species (Table 2) were used for conventional susceptibility testing experiments. Minimum Inhibitory Concentration (MIC) was determined by a standard microdilution assay as recommended by the National Commitee for Clinical Laboratory Standards (NCCLS) using cation-supplemented Mueller-Hinton (MH) broth (Oxoid Ltd. Basingstoke, UK) and a bacterial inoculum of 5×10^4 CFU per well, in a final volume of 100 μl. Results were recorded by visual inspection after 24 h of incubation at 37° C.

[2] = tested on: Escherichia coli ATCC 25922; assay type: cell-based
Description: as §1, §2

[3] = tested on: Pseudomonas aeruginosa ATCC27853; assay type: cell-based
Description: as §1, §2

[4] = Stability to plasmatic protease (HPLC); assay type: in vitro ADME, human
Description: Since the use of peptides as therapeutic agents is severely limited by their in vivo half-life, the stability to human serum protease of the linear peptide L1 and of the MAP peptides M1, M4, M5 and M6 was evaluated. The peptides were incubated at the concentration of 10 mM with plasma and with human serum for 2 and 24 hours; the samples were subsequently analysed in HPLC on column C18 (see materials and methods) to evaluate the presence of linear and MAP peptide not digested by the protease.
The various peptides in MAP form and the linear peptide (L1) were dissolved in H2O at the concentration of 10 mM and incubated with 10 μl of plasma and human serum for 2 and 24 hours at 37° C. To each sample were added 150 μl of methanol to block the proteolytic reaction; each sample was then centrifuged at 13,000 rpm for 2 min and to the supernatant were added 0.75 ml of 0.1% trifluoroacetic acid. The samples were analysed in reverse phase HPLC on a Vydac C18 semi-preparative column using a 30 min gradient of buffer B from 20% to 95% (buffer A: 0.1% trifluoroacetic acid/water; buffer B: 0.1% trifluoroacetic acid/methanol), to evaluate the presence of linear and MAP peptide after the proteolytic treatment.

E. coli strain TG1 = experiment: Test of antibacterial activity (colony growth inhibition) on E. coli strain TG1; assay type: cell-based; details: E. coli TG1, colony counting vs control without peptide
Description: The antimicrobic activity of the peptides in linear form (L1, L4, L5, L6) and in MAP form (M1, M4, M5, M6) was assayed on the TG1 strain of E. coli. The peptides were incubated at various concentrations (2-1-0.5-0.25-0.12 mg/ml) with cells of E. coli (OD600=0.2) for about 1 hour at 37° C. Subsequently, the cells were plated on agar at dilution such to allow counting of individual colonies. The antimicrobic activity of the synthesised peptide L 1 and M1 is shown FIG. 1 and is compared to a non correlated MAP peptide (MNC) used as negative control.
In one example, the tetrabranched MAP peptides with the amino acid sequence: QAKIRVRLSA [SEQ ID NO: 2], KIRVRLSA [SEQ ID NO: 3], QKKIRVRLSA [SEQ ID NO: 4] are used individually in a bacterial colony growth inhibition test. The test is conducted by incubating different concentrations of MAP peptides with E. coli (strain TG1) and plating bacterial cells on agar at a dilution such to allow for individual colonies counting. The following day, the number of colonies grown after treatment with the three MAP peptides is compared.
Antimicrobic tests were conducted incubating for 75 min at 37° C., 25 μL of E. coli at the OD600 of 0.2 with 25 μl of MAP peptide dissolved in PBS at the various concentrations. The different incubations were further diluted 1:1000 in 2×TY medium and 100 μl were plated on solid 2×TY medium. The plates were left overnight at 30° C. and the individual grown colonies were counted and compared with a control, not treated with MAP peptide.

[5] = tested on: E. coli plasmid vector pCEP4 DNA; experiment: DNA binding assay (gel retardation); details: 200 ng pCEP4, 1% agarose gel, 1 h room temperature
Description: In an attempt to clarify the molecular mechanism of action, the authors examined the binding properties on DNA exerted by M6 dendrimeric peptide and magainin 2, an antimicrobial peptide which has a pore-forming activity on the cell membrane. The DNA binding abilities of M6 and magainin 2 were examined by analyzing the electrophoretic mobility of DNA bands at the various weight ratios of peptides to DNA on a 1% (w/v) agarose gel.
Gel-retardation experiments were performed by mixing 200 ng of the E. coli plasmid vector pCEP4 (Invitrogen) with increasing amounts of M6 peptide in 20 μl of binding buffer (5% glycerol, 10 mM Tris-HCl (pH 8.0), 1 mM EDTA, 1 mM DTT, 20 mM KCl and 50 μg/ml BSA). The reaction mixtures were incubated at room temperature for 1 h. Subsequently, 4 μl of native loading buffer was added (40% saccarose, 0.25% bromophenol blue) and an aliquot of 12 μl was applied to a 1% agarose gel electrophoresis in 1 mM Tris borate-EDTA buffer.

[6] = Escherichia coli ATCC 25922, reference strain
[7] = Pseudomonas aeruginosa ATCC27853, reference strain

Compound	MIC (Molarity) [1]	MIC (Molarity) [2, 6]	MIC (Molarity) [3, 7]	MIC (Molarity) ([2]; ATCC 25922)	MIC (Molarity) ([3]; ATCC27853)	further results
NCC[C@H](O)C(=O)N[C@@H]1C[C@H](N)[C@@H](O[C@H]2O[C@H](CN)[C@@H](O)[C@H](O)[C@H]2O)[C@H](O)[C@H]1O[C@H]1O[C@H](CO)[C@@H](O)[C@H](N)[C@H]1O [AMIKACIN, amikacin, reference compound]	0.85 to 6.8 µM	1.7 to 6.8 µM	1.7 to 6.8 µM			
CO/N=C(\C(=O)N[C@@H]1C(=O)N2C(C(=O)O)=C(CSc3nc(=O)c(=O)[nH]n3C)CS[C@H]12)c1csc(N)n1 [CEFTRIAXONE, ceftriaxone, reference compound]	0.054 to 0.21 µM	14 to 110 µM	1.7 to 14 µM			
CC[C@H](C)[C@H](NC(=O)[C@H](CCCCN)NC(=O)[C@H](CCC(=O)O)NC(=O)[C@@H](N)CCC(N)=O)C(=O)N[C@@H](CCCNC(=N)N)C(=O)N[C@H](C(=O)N[C@@H](CCCNC(=N)N)C(=O)N[C@@H](CC(C)C)C(=O)N[C@@H](CO)C(=O)N[C@@H](C)C(N)=O)C(C)C [L1, QEKIRVRLSA] (H-QEKIRVRLSA-NH2; N-terminus assumed)						Resistance to plasmatic protease: Plasma 2 h [4]: +; Resistance to plasmatic protease: Plasma 24 h [4]: −; Antibacterial activity on E. coli TG1 colony growth (E. coli strain TG1): inhibited significantly
C[C@H]1COc2c(N3CCN(C)CC3)c(F)cc3c(=O)c(C(=O)O)cn1c23 [LEVOFLOXACIN, levofloxacin, reference compound]	0.022 to 16 µM	1.3 to 11 µM	0.16 to 1.3 µM			
I: AKKIRVRLSAKKA-OH / II: AKKIRVRLSAK / III: AKKIRVRLSA / IV: AKKIRVRLSA (amide I:11-IV:C, I:12-II:C, II:11-III:C) [M31]	>12 µM			3 µM	3 µM	
I: QKAIRVRLSAKKA-OH / II: QKAIRVRLSAK / III: QKAIRVRLSA / IV: QKAIRVRLSA (amide I:11-IV:C, I:12-II:C, II:11-III:C) [M33, QKAIRVRLSA]	>12 µM	1.5 µM	1.5 µM			
I: QKKARVRLSAKKA-OH / II: QKKARVRLSAK / III: QKKARVRLSA / IV: QKKARVRLSA (amide I:11-IV:C, I:12-II:C, II:11-III:C) [M34, QKKARVRLSA]	>12 µM	>12 µM			12 µM	
I: QKKIAVRLSAKKA-OH / II: QKKIAVRLSAK / III: QKKIAVRLSA / IV: QKKIAVRLSA (amide I:11-IV:C, I:12-II:C, II:11-III:C) [M35, QKKIAVRLSA]	>12 µM			6 µM	1.5 µM	
I: QKKIRVALSAKKA-OH / II: QKKIRVALSAK / III: QKKIRVALSA / IV: QKKIRVALSA (amide I:11-IV:C, I:12-II:C, II:11-III:C) [M37]	>12 µM			3 µM	3 µM	
I: QKKIRVRLAAKKA-OH / II: QKKIRVRLAAK / III: QKKIRVRLAA / IV: QKKIRVRLAA (amide I:11-IV:C, I:12-II:C, II:11-III:C) [M39, QKKIRVRLAA]	>12 µM			3 µM	3 µM	
I: QKRIRVRLSAKKA-OH / II: QKRIRVRLSAK / III: QKRIRVRLSA / IV: QKRIRVRLSA (amide I:11-IV:C, I:12-II:C, II:11-III:C) [M29, QKRIRVRLSA]	>12 µM			6 µM	6 µM	
I: QRKIRVRLSAKKA-OH / II: QRKIRVRLSAK / III: QRKIRVRLSA / IV: QRKIRVRLSA (amide I:11-IV:C, I:12-II:C, II:11-III:C) [M28]	>12 µM	0.38 µM	0.76 µM			
I: QRRIRVRLSAKKA-OH / II: QRRIRVRLSAK / III: QRRIRVRLSA / IV: QRRIRVRLSA (amide I:11-IV:C, I:12-II:C, II:11-III:C) [M30, QRRIRVRLSA]	>12 µM			3 µM	12 µM	
QKKIRARLSA [M36]	>12 µM	>12 µM	>12 µM			
QKKIRVRASA [M38]	>12 µM	>12 µM	>12 µM			
magainin 2 [reference compound]						Weight ratio of peptide to DNA at which migration of DNA is inhibited [5]: 5
